Measurements from US20250312462A1, “PAK1 DEGRADERS AND METHODS OF USE THEREOF” (INSTITUTE FOR CANCER RESEARCH D/B/A THE RESEARCH INSTITUTE …, priority 2022, published 2025).

Key:
[1] = biological target: CLK4 (Homo sapiens, UniProt Q9HAZ1); experiment: KINOMEscan; details: read-out: Percent Control
Method: (§1) The kinase engagement assay (KINOMEscan®) was performed by DiscoverX assessing binding abilities toward a set of kinases.

[2] = biological target: NEK7 (Homo sapiens, UniProt Q8TDX7); experiment: KINOMEscan; details: read-out: Percent Control
Method: as §1

[3] = biological target: EPHB4 (Homo sapiens, UniProt P54760); experiment: KINOMEscan; details: read-out: Percent Control
Method: as §1

[4] = biological target: GRK1 (Homo sapiens, UniProt Q15835); experiment: KINOMEscan; details: read-out: Percent Control
Method: as §1

[5] = biological target: MET(Y1235D) (Homo sapiens, UniProt P08581, Y1235D); experiment: KINOMEscan; details: read-out: Percent Control
Method: as §1

[6] = biological target: LKB1 (Homo sapiens, UniProt Q15831); experiment: KINOMEscan; details: read-out: Percent Control
Method: as §1

[7] = biological target: FGFR4 (Homo sapiens, UniProt P22455); experiment: KINOMEscan; details: read-out: Percent Control
Method: as §1

[8] = biological target: FLT3(K663Q) (Homo sapiens, UniProt P36888, K663Q); experiment: KINOMEscan; details: read-out: Percent Control
Method: as §1

[9] = biological target: PDPK1 (Homo sapiens, UniProt O15530); experiment: KINOMEscan; details: read-out: Percent Control
Method: as §1

[10] = biological target: CDK4-cyclinD3 (Homo sapiens, UniProt P11802); experiment: KINOMEscan; details: read-out: Percent Control
Method: as §1

[11] = biological target: PKMYT1 (Homo sapiens, UniProt Q99640); experiment: KINOMEscan; details: read-out: Percent Control
Method: as §1

[12] = biological target: PIK4CB (Homo sapiens, UniProt Q9UBF8); experiment: KINOMEscan; details: read-out: Percent Control
Method: as §1

[13] = biological target: WNK2 (Homo sapiens, UniProt Q9Y3S1); experiment: KINOMEscan; details: read-out: Percent Control
Method: as §1

[14] = biological target: FLT3(D835Y) (Homo sapiens, UniProt P36888, D835Y); experiment: KINOMEscan; details: read-out: Percent Control
Method: as §1

[15] = biological target: DAPK1 (Homo sapiens, UniProt P53355); experiment: KINOMEscan; details: read-out: Percent Control
Method: as §1

[16] = biological target: RSK4(Kin.Dom.1-N-terminal) (Homo sapiens, UniProt Q9UK32); experiment: KINOMEscan; details: read-out: Percent Control
Method: as §1

[17] = biological target: RIOK3 (Homo sapiens, UniProt O14730); experiment: KINOMEscan; details: read-out: Percent Control
Method: as §1

[18] = biological target: PAK7 (Homo sapiens, UniProt Q9P286); experiment: KINOMEscan; details: read-out: Percent Control
Method: as §1

[19] = biological target: JNK2 (Homo sapiens, UniProt P45984); experiment: KINOMEscan; details: read-out: Percent Control
Method: as §1

[20] = biological target: TNK1 (Homo sapiens, UniProt Q13470); experiment: KINOMEscan; details: read-out: Percent Control
Method: as §1

[21] = biological target: NEK6 (Homo sapiens, UniProt Q9HC98); experiment: KINOMEscan; details: read-out: Percent Control
Method: as §1

[22] = biological target: CAMK1G (Homo sapiens, UniProt Q96NX5); experiment: KINOMEscan; details: read-out: Percent Control
Method: as §1

[23] = biological target: WEE1 (Homo sapiens, UniProt P30291); experiment: KINOMEscan; details: read-out: Percent Control
Method: as §1

[24] = biological target: BRSK2 (Homo sapiens, UniProt Q8IWQ3); experiment: KINOMEscan; details: read-out: Percent Control
Method: as §1

[25] = biological target: PAK2 (Homo sapiens, UniProt Q13177); experiment: Z'-LYTE FRET kinase inhibition assay; format: biochemical; set-up: PAK2 (full length); purchased Invitrogen PV4565
Method: The activity/inhibition of human recombinant PAK1 (kinase domain) or PAK2 (full length) was determined by measuring the phosphorylation of a FRET peptide substrate (Ser/Thr19) labeled with Coumarin and Fluorescein using Z′-LYTE™ assay (Invitrogen). The 10 μL assay mixtures contained 50 mM HEPES (pH 7.5), 0.01% Brij-35, 10 mM MgCl2, 1 mM EGTA, 2 μM FRET peptide substrate, and PAK enzyme (20 pM PAK1; 50 pM PAK2). Incubations were carried out at 22° C. in black polypropylene 384-well plates (Corning Costar). Prior to the assay, enzyme, FRET peptide substrate and serially diluted test compounds were preincubated together in assay buffer (7.5 μL) for 10 minutes, and the assay was initiated by the addition of 2.5 μL assay buffer containing 4×ATP (160 μM PAK1; 480 μM PAK2). Following the 60-minute incubation, the assay mixtures were quenched by the addition of 5 μL of Z′-LYTE™ development reagent, and 1 hour later the emissions of Coumarin (445 nm) and Fluorescein (520 nm) were determined after excitation at 400 nm using an Envision plate reader (Perkin Elmer). […].

[26] = biological target: EPHA8 (Homo sapiens, UniProt P29322); experiment: KINOMEscan; details: read-out: Percent Control
Method: as §1

[27] = biological target: LYN (Homo sapiens, UniProt P07948); experiment: KINOMEscan; details: read-out: Percent Control
Method: as §1

[28] = biological target: PIK3CA(I800L) (Homo sapiens, UniProt P42336, I800L); experiment: KINOMEscan; details: read-out: Percent Control
Method: as §1

[29] = biological target: BMPR1B (Homo sapiens, UniProt O00238); experiment: KINOMEscan; details: read-out: Percent Control
Method: as §1

Chain of WEE1 (P30291 whole entry): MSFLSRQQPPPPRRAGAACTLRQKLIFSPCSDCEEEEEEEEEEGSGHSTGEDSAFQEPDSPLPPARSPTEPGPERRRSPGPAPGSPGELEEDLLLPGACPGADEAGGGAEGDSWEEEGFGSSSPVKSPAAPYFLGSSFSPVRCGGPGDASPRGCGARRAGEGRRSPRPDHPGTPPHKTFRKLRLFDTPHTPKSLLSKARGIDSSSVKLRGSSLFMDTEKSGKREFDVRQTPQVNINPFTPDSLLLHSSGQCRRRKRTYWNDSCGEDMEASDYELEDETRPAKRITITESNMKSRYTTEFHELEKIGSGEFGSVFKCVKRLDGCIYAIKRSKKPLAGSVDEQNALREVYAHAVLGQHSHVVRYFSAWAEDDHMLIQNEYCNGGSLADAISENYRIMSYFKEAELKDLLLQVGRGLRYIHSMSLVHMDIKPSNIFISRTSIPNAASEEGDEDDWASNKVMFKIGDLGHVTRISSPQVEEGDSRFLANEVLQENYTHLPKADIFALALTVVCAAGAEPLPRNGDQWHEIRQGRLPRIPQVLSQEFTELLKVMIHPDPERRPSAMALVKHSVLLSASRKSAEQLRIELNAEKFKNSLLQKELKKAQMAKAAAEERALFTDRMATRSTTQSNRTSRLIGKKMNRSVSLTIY
Chain of LYN (P07948 whole entry): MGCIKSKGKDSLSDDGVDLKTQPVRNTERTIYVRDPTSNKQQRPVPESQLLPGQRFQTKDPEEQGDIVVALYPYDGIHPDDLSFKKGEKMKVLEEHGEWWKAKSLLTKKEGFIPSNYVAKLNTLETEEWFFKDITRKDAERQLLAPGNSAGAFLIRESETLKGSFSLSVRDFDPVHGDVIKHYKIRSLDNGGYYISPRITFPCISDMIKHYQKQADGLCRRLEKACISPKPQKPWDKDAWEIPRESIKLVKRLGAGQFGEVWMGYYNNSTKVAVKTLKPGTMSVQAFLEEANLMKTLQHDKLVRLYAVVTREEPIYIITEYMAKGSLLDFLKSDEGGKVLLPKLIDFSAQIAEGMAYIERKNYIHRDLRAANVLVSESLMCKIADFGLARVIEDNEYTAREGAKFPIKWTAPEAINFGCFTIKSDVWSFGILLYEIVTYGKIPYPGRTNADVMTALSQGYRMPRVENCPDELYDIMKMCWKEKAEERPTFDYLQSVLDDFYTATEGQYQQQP
Chain of PAK2 (Q13177 whole entry, the tested form may be a part): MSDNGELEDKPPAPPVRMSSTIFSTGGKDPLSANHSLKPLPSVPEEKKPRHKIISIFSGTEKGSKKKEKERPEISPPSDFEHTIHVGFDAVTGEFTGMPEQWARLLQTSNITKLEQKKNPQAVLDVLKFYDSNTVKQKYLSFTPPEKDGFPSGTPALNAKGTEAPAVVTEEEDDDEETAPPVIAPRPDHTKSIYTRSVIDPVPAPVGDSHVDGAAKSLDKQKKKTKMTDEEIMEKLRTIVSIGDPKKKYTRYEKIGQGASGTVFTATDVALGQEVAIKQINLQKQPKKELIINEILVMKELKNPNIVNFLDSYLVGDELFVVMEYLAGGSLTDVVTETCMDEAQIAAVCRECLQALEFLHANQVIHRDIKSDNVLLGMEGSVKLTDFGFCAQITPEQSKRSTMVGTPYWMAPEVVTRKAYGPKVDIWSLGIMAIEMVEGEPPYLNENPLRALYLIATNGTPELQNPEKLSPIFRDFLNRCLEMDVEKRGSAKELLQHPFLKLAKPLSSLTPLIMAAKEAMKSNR
Chain of DAPK1 (P53355 whole entry): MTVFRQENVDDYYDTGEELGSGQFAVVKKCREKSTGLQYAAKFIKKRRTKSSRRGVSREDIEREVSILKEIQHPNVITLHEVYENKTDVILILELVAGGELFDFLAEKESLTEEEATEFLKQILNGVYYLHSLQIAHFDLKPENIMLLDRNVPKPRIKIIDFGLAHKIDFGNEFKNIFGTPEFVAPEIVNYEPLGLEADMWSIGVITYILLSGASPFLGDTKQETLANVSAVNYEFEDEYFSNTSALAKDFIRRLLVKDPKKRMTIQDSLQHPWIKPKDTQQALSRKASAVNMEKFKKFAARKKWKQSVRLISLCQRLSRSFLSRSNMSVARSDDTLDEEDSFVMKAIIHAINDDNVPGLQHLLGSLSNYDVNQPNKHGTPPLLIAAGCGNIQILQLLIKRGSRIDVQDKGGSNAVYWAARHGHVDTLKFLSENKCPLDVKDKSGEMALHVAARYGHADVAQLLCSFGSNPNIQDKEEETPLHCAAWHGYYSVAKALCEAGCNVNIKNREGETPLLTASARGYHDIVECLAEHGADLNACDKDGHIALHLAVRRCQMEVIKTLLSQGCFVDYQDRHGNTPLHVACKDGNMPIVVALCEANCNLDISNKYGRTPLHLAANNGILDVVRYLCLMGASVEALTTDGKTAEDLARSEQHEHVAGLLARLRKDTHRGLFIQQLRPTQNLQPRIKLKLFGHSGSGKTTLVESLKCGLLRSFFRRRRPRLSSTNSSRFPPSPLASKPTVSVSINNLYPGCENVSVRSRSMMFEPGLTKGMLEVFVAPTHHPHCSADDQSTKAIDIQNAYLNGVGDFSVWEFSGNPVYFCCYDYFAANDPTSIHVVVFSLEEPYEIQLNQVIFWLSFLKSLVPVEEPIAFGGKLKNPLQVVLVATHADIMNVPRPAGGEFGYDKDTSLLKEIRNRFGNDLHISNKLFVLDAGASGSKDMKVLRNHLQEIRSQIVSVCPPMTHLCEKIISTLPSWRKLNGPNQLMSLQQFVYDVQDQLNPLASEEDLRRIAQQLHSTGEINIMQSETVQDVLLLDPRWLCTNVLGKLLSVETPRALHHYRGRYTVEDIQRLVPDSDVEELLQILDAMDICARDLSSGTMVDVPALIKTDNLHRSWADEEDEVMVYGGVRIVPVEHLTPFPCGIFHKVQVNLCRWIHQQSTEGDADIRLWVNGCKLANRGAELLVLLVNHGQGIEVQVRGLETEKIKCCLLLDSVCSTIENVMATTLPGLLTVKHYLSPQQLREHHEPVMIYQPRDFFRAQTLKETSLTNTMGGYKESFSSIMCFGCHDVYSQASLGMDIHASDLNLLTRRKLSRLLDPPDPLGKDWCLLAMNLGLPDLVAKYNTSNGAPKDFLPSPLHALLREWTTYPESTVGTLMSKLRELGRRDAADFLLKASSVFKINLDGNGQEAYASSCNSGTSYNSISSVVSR
Chain of BRSK2 (Q8IWQ3 whole entry): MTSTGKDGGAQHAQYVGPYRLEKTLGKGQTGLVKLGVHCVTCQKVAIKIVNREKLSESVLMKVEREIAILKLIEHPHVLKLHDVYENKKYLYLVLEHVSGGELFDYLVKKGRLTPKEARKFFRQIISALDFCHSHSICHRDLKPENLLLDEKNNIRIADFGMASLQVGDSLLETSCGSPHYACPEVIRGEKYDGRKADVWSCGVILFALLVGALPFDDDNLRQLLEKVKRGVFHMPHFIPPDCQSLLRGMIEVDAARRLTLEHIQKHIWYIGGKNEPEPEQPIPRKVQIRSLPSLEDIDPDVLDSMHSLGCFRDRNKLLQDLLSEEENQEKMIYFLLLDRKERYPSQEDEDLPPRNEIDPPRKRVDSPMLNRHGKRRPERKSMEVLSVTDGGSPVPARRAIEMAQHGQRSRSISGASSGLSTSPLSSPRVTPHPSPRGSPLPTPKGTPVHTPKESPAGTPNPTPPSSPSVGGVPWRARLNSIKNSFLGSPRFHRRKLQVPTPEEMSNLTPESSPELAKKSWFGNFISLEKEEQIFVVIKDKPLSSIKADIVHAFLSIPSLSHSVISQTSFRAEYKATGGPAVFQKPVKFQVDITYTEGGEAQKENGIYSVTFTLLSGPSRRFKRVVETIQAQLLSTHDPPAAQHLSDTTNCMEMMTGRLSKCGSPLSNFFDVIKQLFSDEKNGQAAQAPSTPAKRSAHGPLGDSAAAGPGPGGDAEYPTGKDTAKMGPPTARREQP
Chain of PAK7 (Q9P286 whole entry): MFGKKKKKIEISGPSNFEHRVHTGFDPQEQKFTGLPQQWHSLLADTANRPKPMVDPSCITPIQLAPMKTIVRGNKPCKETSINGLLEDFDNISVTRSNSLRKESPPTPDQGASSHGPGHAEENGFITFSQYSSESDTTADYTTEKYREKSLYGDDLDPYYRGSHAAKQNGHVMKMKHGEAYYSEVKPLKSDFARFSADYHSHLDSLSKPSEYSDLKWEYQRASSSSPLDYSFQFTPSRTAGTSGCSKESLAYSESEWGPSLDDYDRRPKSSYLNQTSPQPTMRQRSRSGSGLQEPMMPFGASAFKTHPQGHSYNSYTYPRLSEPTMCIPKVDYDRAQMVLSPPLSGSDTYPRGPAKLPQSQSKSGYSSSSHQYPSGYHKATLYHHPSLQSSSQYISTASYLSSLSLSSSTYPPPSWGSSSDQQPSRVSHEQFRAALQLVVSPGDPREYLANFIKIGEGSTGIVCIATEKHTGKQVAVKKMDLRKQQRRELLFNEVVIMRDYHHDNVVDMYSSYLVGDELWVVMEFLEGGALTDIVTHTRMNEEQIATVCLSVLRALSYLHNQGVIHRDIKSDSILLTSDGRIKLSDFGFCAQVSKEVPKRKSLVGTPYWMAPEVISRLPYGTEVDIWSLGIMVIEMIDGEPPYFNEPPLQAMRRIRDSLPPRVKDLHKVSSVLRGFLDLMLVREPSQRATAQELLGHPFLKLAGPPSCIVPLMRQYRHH
Chain of RSK4(Kin.Dom.1-N-terminal) (Q9UK32 73-330 limits assumed): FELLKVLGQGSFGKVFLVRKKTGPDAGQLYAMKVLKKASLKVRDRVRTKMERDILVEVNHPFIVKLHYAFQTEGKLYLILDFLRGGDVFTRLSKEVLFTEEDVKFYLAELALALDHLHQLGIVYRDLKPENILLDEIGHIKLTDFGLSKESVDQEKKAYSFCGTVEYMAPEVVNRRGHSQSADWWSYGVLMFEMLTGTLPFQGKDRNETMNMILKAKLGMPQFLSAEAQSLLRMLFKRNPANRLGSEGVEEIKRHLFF

Compound: O=C1CCC(N2C(=O)c3cccc(NCCCCCCCCNC(=O)N4CC[C@H](NC5=Nc6cc(F)ccc6N(CC(F)F)c6ccc(Cl)cc65)C4)c3C2=O)C(=O)N1 (stereo partly drawn) [BJG-05-039, (3S)-3-((2-Chloro-5-(2,2-difluoroethyl)-8-fluoro-5H-dibenzo[b,e][1,4]diazepin-11-yl)amino)-N-(8-((2-(2,6-dioxopiperidin-3-yl)-1,3-dioxoisoindolin-4-yl)amino)octyl)pyrrolidine-1-carboxamide]
- remaining binding at 10 µM [1]: 100%
- remaining binding at 10 µM [2]: 79%
- remaining binding at 10 µM [3]: 91%
- remaining binding at 10 µM [4]: 89%
- remaining binding at 10 µM [5]: 63%
- remaining binding at 10 µM [6]: 89%
- remaining binding at 10 µM [7]: 68%
- remaining binding at 10 µM [8]: 59%
- remaining binding at 10 µM [9]: 86%
- remaining binding at 10 µM [10]: 100%
- remaining binding at 10 µM [11]: 54%
- remaining binding at 10 µM [12]: 78%
- remaining binding at 10 µM [13]: 89%
- remaining binding at 10 µM [14]: 63%
- remaining binding at 10 µM [15]: 47%
- remaining binding at 10 µM [16]: 95%
- remaining binding at 10 µM [17]: 84%
- remaining binding at 10 µM [18]: 42%
- remaining binding at 10 µM [19]: 84%
- remaining binding at 10 µM [20]: 83%
- remaining binding at 10 µM [21]: 91%
- remaining binding at 10 µM [22]: 63%
- remaining binding at 10 µM [23]: 42%
- remaining binding at 10 µM [24]: 99%
- IC50 [25]: > 10 µM
- remaining binding at 10 µM [26]: 84%
- remaining binding at 10 µM [27]: 79%
- remaining binding at 10 µM [28]: 100%
- remaining binding at 10 µM [29]: 85%
